Assay results: patent publication US20250230193A1, “CYCLIC COMPOUND HAVING SELECTIVE KRAS INHIBITORY EFFECT ON HRAS AND NRAS” (CHUGAI SEIYAKU KABUSHIKI KAISHA, priority 2022, published 2025)
Where a SMILES comes first, the peptide text is derived from it. Bridges are numbered along the chain shown (N, C = ends). [ ]: non-standard residue; d: D form. The star is where a group is joined. hPhe(3-Cl-4-CF3) = N[C@@H](CCc1ccc(C(F)(F)F)c(Cl)c1)C(=O)O; NPrPhe(4-CF3) = CCCN[C@@H](Cc1ccc(C(F)(F)F)cc1)C(=O)O; NMeGly(cPent) = CN[C@H](C(=O)O)C1CCCC1; NMeL = CN[C@@H](CC(C)C)C(=O)O; Morpholide = C1CN(*)CCO1; Ac4c = NC1(C(=O)O)CCC1; Sar = CNCC(=O)O

Assays:
[1] = target: GDP-bound NRAS wild-type protein (Homo sapiens, UniProt P01111); experiment: Binding to NRAS by surface plasmon resonance (SPR), Single Cycle Kinetics
Chain of GDP-bound NRAS wild-type protein (P01111 whole entry): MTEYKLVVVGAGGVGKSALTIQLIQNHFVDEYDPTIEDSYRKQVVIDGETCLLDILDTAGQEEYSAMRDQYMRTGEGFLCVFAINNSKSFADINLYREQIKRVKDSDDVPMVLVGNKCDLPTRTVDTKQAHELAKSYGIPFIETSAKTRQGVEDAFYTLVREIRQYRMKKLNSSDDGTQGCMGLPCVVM

[2] = target: GDP-bound HRAS wild-type protein (Homo sapiens, UniProt P01112); experiment: Binding to HRAS by surface plasmon resonance (SPR), Single Cycle Kinetics
Chain of GDP-bound HRAS wild-type protein (P01112 whole entry): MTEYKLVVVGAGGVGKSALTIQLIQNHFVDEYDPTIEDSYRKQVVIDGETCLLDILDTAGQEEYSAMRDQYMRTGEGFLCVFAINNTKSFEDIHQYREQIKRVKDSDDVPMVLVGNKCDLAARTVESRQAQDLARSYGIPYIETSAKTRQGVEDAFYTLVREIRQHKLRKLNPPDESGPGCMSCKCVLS

[3] = KD ratio NRAS/KRAS, class symbols
[4] = KD ratio HRAS/KRAS, class symbols
[5] = KD ratio, GDP-bound NRAS wild-type vs GDP-bound KRAS wild-type, SPR
[6] = KD ratio, GDP-bound HRAS wild-type vs GDP-bound KRAS wild-type, SPR

`CCCO[C@@H]1C[C@H]2C(=O)NC3(CC(C)(C)C3)C(=O)N(C)[C@@H](C3CCCC3)C(=O)N(C)[C@H](C(=O)N(C)CC)CC(=O)N(C)[C@H]3CCCc4ccc(cc4)C[C@@H](C(=O)N(C)CC(=O)N[C@@H](CCc4ccc(C(F)(F)F)c(OC)c4)C(=O)N2C1)N1CC/C=C\C[C@@H](C1=O)N(C)C(=O)CN(C1CC1)C(=O)[C@H]([C@@H](C)CC)NC3=O` [PP3088] was tested, and the “NRAS/KRAS (ratio of KD value with respect to GDP-bound NRAS wild-type protein to KD value with respect to KRAS)” value ([1]; KD ratio NRAS/KRAS, SPR, GDP-bound wild-type proteins) was “B (a compound having 3 or more and less than 10 is denoted as B)” and the “HRAS/KRAS (ratio of KD value with respect to GDP-bound HRAS wild-type protein to KD value with respect to KRAS)” value ([2]; KD ratio HRAS/KRAS, SPR, GDP-bound wild-type proteins) was “B (a compound having 3 or more and less than 10 is denoted as B)”.
With `CCC(CC)[C@H]1C(=O)N(C)[C@H](C(=O)N2CCCC2)CC(=O)N(C)[C@H]2CCC/C=C/c3ccc(cc3)C[C@@H](C(=O)N(C)CC(=O)N[C@@H](CCc3ccc(Cl)c(Cl)c3)C(=O)N3CCC[C@H]3C(=O)NC3(CC(C)(C)C3)C(=O)N1C)N1CC/C=C\C[C@@H](C1=O)N(C)C(=O)CN(C)C(=O)[C@H]([C@@H](C)CC)NC2=O` [PP2604] the “NRAS/KRAS (ratio of KD value with respect to GDP-bound NRAS wild-type protein to KD value with respect to KRAS)” value [1, 3] was “AA (a compound having 20 or more is denoted as AA)” and the “HRAS/KRAS (ratio of KD value with respect to GDP-bound HRAS wild-type protein to KD value with respect to KRAS)” value [2, 4] was “A (a compound having 10 or more and less than 20 is denoted as A)”.
With `CC[C@H](C)[C@@H]1NC(=O)[C@H](COC)N(C)C(=O)C[C@@H](C(=O)N(C)C)N(C)C(=O)[C@H](C2CCCC2)N(C)C(=O)C2(CC(C)(C)C2)NC(=O)[C@@H]2CCCCN2C(=O)[C@H](CCc2cc(F)c(C(F)(F)F)c(F)c2)NC(=O)CN(C)C(=O)[C@H](Cc2ccc(C(F)(F)F)cc2)N2CC/C=C\C[C@@H](C2=O)N(C)C(=O)CN(C)C1=O` [PP2907] the “NRAS/KRAS (ratio of KD value with respect to GDP-bound NRAS wild-type protein to KD value with respect to KRAS)” value [1, 3] was “AA (a compound having 20 or more is denoted as AA)” and the “HRAS/KRAS (ratio of KD value with respect to GDP-bound HRAS wild-type protein to KD value with respect to KRAS)” value [2, 4] was “A (a compound having 10 or more and less than 20 is denoted as A)”.
`CCO[C@@H]1C[C@H]2C(=O)NC3(CCC3)C(=O)N(C)[C@@H](C3CCCC3)C(=O)N(C)[C@H](C(=O)N(C)CC)CC(=O)N(C)[C@@H](CC)C(=O)N[C@@H]([C@@H](C)CC)C(=O)N(C)CC(=O)N(C)[C@H]3C/C=C\CCN(C3=O)[C@@H](Cc3ccc(C)cc3)C(=O)N(C)CC(=O)N[C@@H](CCc3ccc(C(F)(F)F)c(OC)c3)C(=O)N2C1` [PP1869] was tested, and the “NRAS/KRAS (ratio of KD value for NRAS to KD value for KRAS)” value [1, 5] was “A (a compound having 10 or more and less than 20 is denoted as A)” and the “HRAS/KRAS (ratio of KD value for HRAS to KD value for KRAS)” value [2, 6] was “A (a compound having 10 or more and less than 20 is denoted as A)”.
In the case of `CCO[C@@H]1C[C@H]2C(=O)NC3(CCC3)C(=O)N(C)[C@@H](C3CCCC3)C(=O)N(C)[C@H](C(=O)N(C)C)CC(=O)N(C)[C@@H](CC)C(=O)N[C@@H]([C@@H](C)CC)C(=O)N3CC[C@H]3C(=O)N(C)[C@H]3C[C@@H](C)CCN(C3=O)[C@@H](Cc3ccc(C(F)(F)F)cc3)C(=O)N(C)CC(=O)N[C@@H](CCc3cc(F)c(C(F)(F)F)c(F)c3)C(=O)N2C1` [PP1021], the “NRAS/KRAS (ratio of KD value with respect to NRAS to KD value with respect to KRAS)” value [1, 5] is reported as “C (A compound having a KD ratio of 0.1 or more and less than 3 is denoted as C)” and the “HRAS/KRAS (ratio of KD value with respect to HRAS to KD value with respect to KRAS)” value [2, 6] is reported as “B (a compound having 3 or more and less than 10 is denoted as B)”.
`CCCN1C(=O)CN(C)C(=O)CNC(=O)[C@H]([C@@H](C)CC)NC(=O)[C@H](CC(C)C)N(C)C(=O)C[C@@H](C(=O)N2CCOCC2)NC(=O)[C@H](C2CCCC2)N(C)C(=O)C2(CCC2)NC(=O)[C@@H]2CCCN2C(=O)[C@H](CCc2ccc(C(F)(F)F)c(Cl)c2)NC(=O)CN(C)C(=O)[C@@H]1Cc1ccc(C(F)(F)F)cc1` [PP0326] ([NMeL]IG[Sar][NPrPhe(4-CF3)][Sar][hPhe(3-Cl-4-CF3)]P[Ac4c][NMeGly(cPent)]D-Morpholide; lactam N-11) was tested, and the “NRAS/KRAS (ratio of KD for GDP-bound NRAS wild-type to KD for KRAS)” value ([1]; KD ratio NRAS/KRAS, SPR) was “B (a compound having 3 or more and less than 10 is denoted as B)” and the “HRAS/KRAS (ratio of KD for GDP-bound HRAS wild-type to KD for KRAS)” value ([2]; KD ratio HRAS/KRAS, SPR) was “B (a compound having 3 or more and less than 10 is denoted as B)”.
For `CCOC[C@H]1C(=O)N[C@@H]([C@@H](C)CC)C(=O)N(C)CC(=O)N(C)[C@H]2C/C=C\CCN(C2=O)[C@@H](CC2CCCCC2)C(=O)N(C)CC(=O)N[C@@H](CCc2ccc(C(F)(F)F)c(Cl)c2)C(=O)N2C[C@H](OCC)C[C@H]2C(=O)NC2(CC(C)(C)C2)C(=O)N(C)[C@@H](C(CC)CC)C(=O)N(C)[C@H](C(=O)N(C)C)CC(=O)N1C` [PP2488], the “NRAS/KRAS (ratio of KD value with respect to NRAS to KD value with respect to KRAS)” value ([1]; SPR, GDP-bound NRAS wild-type vs GDP-bound KRAS wild-type) was “A (a compound having 10 or more and less than 20 is denoted as A)” and the “HRAS/KRAS (ratio of KD value with respect to HRAS to KD value with respect to KRAS)” value ([2]; SPR, GDP-bound HRAS wild-type vs GDP-bound KRAS wild-type) was “A (a compound having 10 or more and less than 20 is denoted as A)”.
